# Patent publication US20240100068A1, “METHODS COMPRISING ADMINISTRATION OF A GLUCOCORTICOID RECEPTOR AGONIST AND AN INHIBITOR OF CALCINEURIN” (Chengdu Anticancer Bioscience, Ltd., priority 2022, published 2024)
# Entries after “also recorded” stand apart in the source; their conditions may differ. Read-outs that look alike come from different tables or passages of the source.
# Legend:
# [1] = test system: MycNick cells; assay: Soft agar colony formation assay (anchorage-independent growth); assay type: cell-based, murine; conditions: FIG. 9: 2 μM of DEX or 5 μM of HC, up to 22 days
# Experimental: FIG. 9. are images (left) and graphs (right) showing both Hydrocortisone and Dexamethasone suppress the anchorage-independent growth of T2MycNick cells. The T2MycNick cells were mixed with 0.35% soft agar and transferred to 24-well microplates 24 hours before exposed to vehicle, 2 μM of DEX or 5 μM of HC. Images were acquired with an inverted tissue culture microscope at 1, 9 and 22 days after initiation of drug treatment. The sizes of spheroids were quantified with Image J (right).
# The soft agar colony formation assay was performed in 6-well plates with two layers of agar. For the first, 0.75% agar in DMEM medium was melted in a microwave oven and poured to form a bottom layer. Once solidified, 10-100K cells in 1 ml of DMEM containing 0.35% agar was added to form the top layer, which was later covered with 0.5 ml of DMEM. Cell culture medium was changed once every two days until colonies were ready to photograph. The antitumor activity of Hydrocortisone and Dexamethasone was tested in soft agar assays. […] The suppression of growth of the cell line in 3D culture is consistent with the suppressive impact of these compounds on cell density when cells were allowed to grow beyond confluence.
# [2] = test system: breast cancer cell line MDA-MB-231; assay: Final cell density and vacuolation in breast cancer cell line MDA-MB-231; assay type: cell-based; conditions: for final cell density: 2 weeks
# Text: (§1) FIG. 5B are graphs and images showing Hydrocortisone and Dexamethasone reduce the final cell density in a lung cancer cell line A549 and a breast cancer cell line MDA-MB-231). The cells were exposed to vehicle or the indicated concentrations of either Hydrocortisone or Dexamethasone for 2 weeks. The cells were then either numerated with a Luna cell counter or fixed and stained with PI for nuclei to reveal the cell density.
# [3] = test system: murine lung cancer cell line TA2280; assay: Final cell density and vacuolation in lung cancer cell line TA2280; assay type: cell-based; conditions: for final cell density: 2 weeks
# Text: FIG. 5A. are images showing Hydrocortisone and Dexamethasone reduce the final cell density in a murine lung cancer cell line TA2280. The cells were exposed to vehicle or the indicated concentrations of either Hydrocortisone or Dexamethasone for 2 weeks. The cells were then fixed and stained with PI for nuclei to reveal the cell density.
# [4] = test system: MycNick cells; assay: MTT assay for cellular proliferation; assay type: cell-based, murine; conditions: confluence of 20-30%, 1 nM to 5 μM
# [5] = test system: T2MycNick cells; assay: IF analysis of cell-cell junctions (ZO-1, β-catenin) in monolayer zones; assay type: cell-based, murine; conditions: 7 days
# Experimental: FIG. 14A. Are images (left) and graphs (right) showing relocation of β-catenin to the cell-cell junctions in monolayer zones. The murine liver cancer cell line T2MycNick was treated with the indicated concentration of Hydrocortisone or Dexamethasone for 7 days before fixed for IF analysis of β-catenin. DNA was stained with DAPI. Images were acquired with an EVOS FL auto microscope. The relative signal density alone the line in each subpanel was quantified with Image J.
# FIG. 14B. Are images (left) and graphs (right) showing relocation of ZO-1 to the cell-cell junctions in monolayer zones. […] The relative signal density alone the line in each subpanel was quantified with Image J. […]
# The following are primary antibodies used in this study. […] Primary antibodies were detected with Rhodamine (TRITC)-conjugated AffiniPure Donkey Anti-Rabbit IgG (H+L) (Cat. # 711-025-152), Fluorescein(FITC)-conjugated Affinipure Goat Anti-Rabbit IgG (H+L) (Cat.#111-095-003), Alexa Fluor488 Affinipure Goat Anti-Mouse IgG (H+L) (Cat. #115-545-003 from Jackson ImmunoResearch at 1:500 dilution. After immunostaining, cells were mounted on microscope slides with 4′,6′-diamidino-2-phenylindole (DAPI)-containing Vectashield mounting solution (Vector Laboratories, Cat. # H1500). For fluorescence detection, an EVOS FL Auto microscope (Thermo Fisher) was used.
# [6] = test system: T2MycNick cells; assay: Testing compounds for their ability of restoring contact inhibition (vacuolation, cell density); assay type: cell-based, murine; conditions: for minimal effective concentration: T2MycNick cells grown beyond confluence, 7-14 days; for diameters of large vacuoles: cells that overgrew beyond confluence; for contact inhibition restoration (CIR) activity: high-density cells
# [7] = test system: T2Puro; assay: Restoration of contact inhibition and induction of vacuolation in control cell line; assay type: cell-based, murine; conditions: FIG. 6A: 7 days, 2 μM of DEX
# Experimental: (§2) The indicated cell isogenic cell lines were exposed for 7 days to 2 μM of DEX. The cells were then imaged under an inverted tissue culture microscope (top left) or an EVOS FL Auto microscope after staining with Acridine Orange (bottom left). The area occupied by drug-induced vacuoles was quantified with Image J and data (bottom right). At the endpoint, the cells were also numerated with a Luna cell counter and relative cell number is shown (top right).
# [8] = test system: T2Bc1-xL cells; assay: Restoration of contact inhibition and induction of vacuolation in Bc1-xL expressing cells; assay type: cell-based, murine; conditions: FIG. 6A: 7 days, 2 μM of DEX
# Experimental: as §2
# [9] = test system: T2MycNick cells; assay: Proliferation and viability of cells cultured under sub-confluence; assay type: cell-based, murine; conditions: for effect on proliferation and viability: cells grown at sub-confluence
# Experimental: (§3) FIG. 1A is a graph showing that DEX has no effect on the viability of murine liver cancer cell lines cultured under sub-confluence. The isogenic murine liver cancer cell lines T2Puro and T2MycNick were passaged and exposed to vehicle or 2 μM of DEX at a confluence of 10%. The cell viability was assayed with Trypan blue exclusion assays at day 3.
# FIG. 1C is a graph showing DEX has no effect on the proliferation of murine liver cancer cell lines cultured under sub-confluence the live cell number was calculated daily with an automatic Luna cell counter and relative cell number was shown for T2MycNick.
# Exponentially growing murine cells expressing Myc-Nick (T2MycNick cells) were passaged into 24-well plates at a final confluence of 20% and were allowed to attach overnight before being exposed to a test compound at a concentration of 10 μM. T2MycNick cells were generated by expressing the Myc-nick, the N-terminal of the Myc protein, in the T2 cell line, which was, in turn, derived from a MYC-driven mouse liver cancer (Shachaf et al., Nature 2004 Oct. 28; 431(7012):1112-7). The cells were subjected to daily analysis of viability and morphology under an inverted tissue culture microscope or GE InCell Analyzer 2000. Cell density was documented after staining of DNA with PI 7-10 days after the initiation of treatment.
# [10] = test system: human lung cancer cell line A549; assay: Final cell density and vacuolation in lung cancer cell line A549; assay type: cell-based; conditions: for final cell density: 2 weeks
# Experimental: as §1
# Cells were treated for 10 days with Hydrocortisone and a Calcineurin inhibitor either individually or in combination and then stained with PI for DNA before imaged with an EVOS FL auto microscope.
# [11] = test system: T2Puro; assay: Proliferation and viability of cells cultured under sub-confluence; assay type: cell-based, murine
# Experimental: as §3
# FIG. 1B is a graph showing DEX has no effect on the proliferation of murine liver cancer cell lines cultured under sub-confluence. The live cell number was calculated daily with an automatic Luna cell counter and relative cell number was shown for T2Puro.
SMILES,anchorage-independent growth [1],vacuolation [2],final cell density [2],vacuolation [3],final cell density [3],cell-cell junctions in monolayer zones [5],diameters of large vacuoles [6],contact inhibition restoration (CIR) activity [6],"response (contact inhibition, vacuolation) [7]","sensitivity (contact inhibition, vacuolation) [8]",effect on proliferation and viability [9],vacuolation [10],final cell density [10],other results
"C[C@]12CCC(=O)C=C1CC[C@@H]1[C@@H]2[C@@H](O)C[C@@]2(C)[C@H]1CC[C@]2(O)C(=O)CO [HC001, Hydrocortisone]",effectively suppressed; also recorded: suppress,induction of vacuolation,Reduction of final cell density,induction of vacuolation,Reduction of final cell density,restored,about 20 μm,restored contact inhibition,did not respond,did not confer sensitivity,no detectable effect,induction of vacuolation,Reduction of final cell density,"proliferation (MTT) [4]: neither Hydrocortisone nor Cyclosporin A affected the proliferation; minimal effective concentration ([6]; Mus musculus, PI staining, read-out: Conc that reduces > 50% in the cell density): 0.156 µM; minimal effective concentration ([6]; Mus musculus, vacuolation covering no less than 10% of a random field, read-out: Min. effective conc. that elicits vacuolation): 0.156 µM; cellular proliferation and viability ([9]; 5 μM, grown in sub-confluence): did not affect"
"C[C@@H]1C[C@H]2[C@@H]3CCC4=CC(=O)C=C[C@]4(C)[C@@]3(F)[C@@H](O)C[C@]2(C)[C@@]1(O)C(=O)CO [HC002, Dexamethasone]",effectively suppressed; also recorded: suppress,induction of vacuolation,Reduction of final cell density,induction of vacuolation,Reduction of final cell density,restored,about 20 μm,restored contact inhibition,did not respond,did not confer sensitivity,no detectable effect,induction of vacuolation,Reduction of final cell density,"viability (Trypan blue exclusion) ([11]; 2 μM, confluence of 10%, day 3): no effect; proliferation (relative live cell number) ([11]; sub-confluence, counted daily): no effect; minimal effective concentration ([6]; PI staining, read-out: Conc that reduces > 50% in the cell density): 0.125 µM; minimal effective concentration ([6]; vacuolation covering no less than 10% of a random field, read-out: Min. effective conc. that elicits vacuolation): 0.125 µM; viability (Trypan blue exclusion) ([9]; 2 μM, confluence of 10%, day 3): no effect; proliferation (relative live cell number) ([9]; sub-confluence, counted daily): no effect"
